Experiments:
EAEC = assay: Agar diffusion growth inhibition zone, EAEC; format: cell-based, Enteroaggregative E. coli; settings: Escherichia coli, 6 mm = no activity
Method: (§1) Among the bacterial agents tested Gram positive and Gram negative bacterial groups represented by Staphylococcus aureus and Enterococcus species and pathogenic members of Enterobacteriaceae, Vibronaceae, Aeromonadaceae, Pseudomonadaceae were tested. Freshly sub-cultured bacterial strains were inoculated into peptone water and incubated for 4 hours at 37° C. and adjusted to a turbidity of 0.5 (Gram Negative Bacilli), 1 (Gram Positive Cocci) and 4 (Pus cells, GNB, & few Budding yeast cells) Mc Farland standards (10^8 CFU/ml) respectively.
(§2) The different bioactive compounds and their derivatives were dissolved and diluted with solvents (DMSO), number of subsequent dilutions was performed to obtain different concentrations of the bioactive compounds and their derivatives. (Working Concentrations).
(§3) Agar well diffusion method is widely used to evaluate the antimicrobial activity of plants or other synthetic products. The suspension (microbial inoculum) was used to inoculate into Muller Hinton Agar Petri plates by lawn culture. Well (diameter 6 mm) were punched in the agar by sterile borer and filled with 50 μl of dissolved extracts. Plates were incubated in incubator at 37° C. for 24 hours and measured the growth inhibition zone diameters in mm compared with that of control (DMSO) showing no growth.
(§4) The bioactive compounds were tested with desired concentrations in 6 mm filter paper discs (Whatman, no. 3) were impregnated with 10 μL of each of the different dilutions. The discs were allowed to remain at room temperature until complete diluent evaporation and kept under refrigeration until ready to be used. 10 μL of diluents used to products were used as control. Tests were performed by Agar disk-diffusion testing method, which is the official method used in many clinical microbiology laboratories for routine antimicrobial susceptibility testing.
(§5) Similar to the procedure used in Agar well diffusion method, the suspension (microbial inoculum) was used to inoculate into Muller Hinton Agar Petri plates by lawn culture. Then, filter paper discs (about 6 mm in diameter), containing the test compound at a desired concentration, were placed on the agar surface. The Petri dishes were incubated under suitable incubation conditions.
(§6) Bioactive compounds showing zone of inhibition beyond the size of 6 mm are considered to be having an anti-microbial activity.

Salmonella typhimurium = assay: Agar diffusion growth inhibition zone, Salmonella typhimurium; format: cell-based; settings: Salmonella enterica, 6 mm = no activity
Method: as §1, §2, §3, §4, §5, §6

Shigella sp. = assay: Agar diffusion growth inhibition zone, Shigella sp.; format: cell-based, Shigella species; settings: Shigella
Method: (§7) Agar well diffusion method is widely used to evaluate the antimicrobial activity of plants or other synthetic products. The suspension (microbial inoculum) was used to inoculate into Muller Hinton Agar Petri plates by lawn culture. Well (diameter 6 mm) were punched in the agar by sterile borer and filled with 50 μl of dissolved extracts. Plates were incubated in incubator at 37° C. for 24 hours and measured the growth inhibition zone diameters in mm compared with that of control (DMSO) showing no growth. The antimicrobial agent diffuses in the agar medium and inhibits the growth of the microbial strain tested (Valgas et al., (2016) Methods for in vitro evaluating antimicrobial activity: A review. Journal of Pharmaceutical Analysis. 6(2):71-9).
(§8) Similar to the procedure used in Agar well diffusion method, the suspension (microbial inoculum) was used to inoculate into Muller Hinton Agar Petri plates by lawn culture. Then, filter paper discs (about 6 mm in diameter), containing the test compound at a desired concentration, were placed on the agar surface. The Petri dishes were incubated under suitable incubation conditions. Generally, antimicrobial agent diffuses into the agar and inhibits germination and growth of the test microorganism and then the diameters of inhibition growth zones are measured (Valgas et al., (2007) Screening methods to determine antibacterial activity of natural products. Brazilian Journal of Microbiology. 38:369-80; Balouiri M et al., (2016) Methods for in vitro evaluating antimicrobial activity: A review. Journal of Pharmaceutical Analysis. 6(2):71-9).

Klebsiella sp. = assay: Agar diffusion growth inhibition zone, Klebsiella sp.; format: cell-based, Klebsiella species; settings: 6 mm = no activity
Method: as §1, §2, §3, §4, §5, §6

Enterococcus sp. = assay: Agar diffusion growth inhibition zone, Enterococcus sp.; format: cell-based, Enterococcus species; settings: 6 mm = no activity
Method: as §1, §2, §3, §4, §5, §6

Citrobacter sp. = assay: Agar diffusion growth inhibition zone, Citrobacter sp.; format: cell-based, Citrobacter species; settings: 6 mm = no activity
Method: as §1, §2, §3, §4, §5, §6

ETEC = assay: Agar diffusion growth inhibition zone, ETEC; format: cell-based, Enterotoxigenic E. coli; settings: for inhibition of growth: ETEC; for zone of inhibition at 100000 µg/disc / zone of inhibition at 150000 µg/disc: Escherichia coli
Method: as §7, §8

Pleisiomonas sp. = assay: Agar diffusion growth inhibition zone, Pleisiomonas sp.; format: cell-based, Pleisiomonas species; settings: for zone of inhibition at 100 mg/mL / zone of inhibition at 150 mg/mL: Pleisiomonas sp., 6 mm = no activity; for inhibition of growth: Plesiomonas species
Method: as §1, §2, §3, §4, §5, §6

Candida abicans = assay: Agar diffusion growth inhibition zone, Candida abicans; format: cell-based, Candida albicans; settings: 6 mm = no activity
Method: as §1, §2, §3, §4, §5, §6

Aeromonas sp. = assay: Agar diffusion growth inhibition zone, Aeromonas sp.; format: cell-based, Aeromonas species; settings: Aeromonas sp., 6 mm = no activity
Method: as §1, §2, §3, §4, §5, §6

Vibrio cholera = assay: Agar diffusion growth inhibition zone, Vibrio cholera; format: cell-based, Vibrio cholerae; settings: Vibrio cholerae
Method: as §7, §8

S. aureus = assay: Agar diffusion growth inhibition zone, S. aureus; format: cell-based, Staphylococcus aureus; settings: for zone of inhibition at 100 mg/mL / zone of inhibition at 150 mg/mL: Staphylococcus aureus, 6 mm = no activity
Method: as §1, §2, §3, §4, §5, §6

Pseudomonas sp. = assay: Agar diffusion growth inhibition zone, Pseudomonas sp.; format: cell-based, Pseudomonas species; settings: Pseudomonas
Method: as §7, §8

Proteus sp. = assay: Agar diffusion growth inhibition zone, Proteus sp.; format: cell-based, Proteus species; settings: for zone of inhibition at 150 mg/mL: Proteus sp., 6 mm = no activity; for zone of inhibition: Proteus species, at both concentrations of 100 mg and 150 mg
Method: as §1, §2, §3, §4, §5, §6

E. coli ATCC 25922 = assay: Agar diffusion growth inhibition zone, E. coli ATCC 25922; format: cell-based; settings: Escherichia coli, 6 mm = no activity; for zone of inhibition at 100 mg/mL: ATCC25922, 100 mg; for zone of inhibition at 150 mg/mL: ATCC25922, 150 mg
Method: as §1, §2, §3, §4, §5, §6

| Compound | zone of inhibition at 100 mg/mL (EAEC) [mm] | zone of inhibition at 150 mg/mL (EAEC) [mm] | zone of inhibition at 100 mg/mL (Salmonella typhimurium) [mm] | zone of inhibition at 150 mg/mL (Salmonella typhimurium) [mm] | zone of inhibition at 100000 µg/disc (Shigella sp.) [mm] | zone of inhibition at 150000 µg/disc (Shigella sp.) [mm] | zone of inhibition at 100 mg/mL (Klebsiella sp.) [mm] | zone of inhibition at 150 mg/mL (Klebsiella sp.) [mm] | zone of inhibition at 100 mg/mL (Enterococcus sp.) [mm] | zone of inhibition at 150 mg/mL (Enterococcus sp.) [mm] | zone of inhibition at 100 mg/mL (Citrobacter sp.) [mm] | zone of inhibition at 150 mg/mL (Citrobacter sp.) [mm] | zone of inhibition at 100 mg/mL (Pleisiomonas sp.) [mm] | zone of inhibition at 150 mg/mL (Pleisiomonas sp.) [mm] | zone of inhibition at 100 mg/mL (Candida abicans) [mm] | zone of inhibition at 100 mg/mL (Aeromonas sp.) [mm] | zone of inhibition at 100000 µg/disc (Vibrio cholera) [mm] | zone of inhibition at 100 mg/mL (S. aureus) [mm] | zone of inhibition at 100000 µg/disc (Pseudomonas sp.) [mm] | zone of inhibition at 100 mg/mL (E. coli ATCC 25922) [mm] | other results |
| --- | --- | --- | --- | --- | --- | --- | --- | --- | --- | --- | --- | --- | --- | --- | --- | --- | --- | --- | --- | --- | --- |
| COc1cc(/C=C/C(=O)CC(=O)/C=C/c2ccc(O)c(OC)c2)ccc1O [compound 1, Curcumin] | 6 | 6 | 6 | 6 | 6 | 6 | 6 | 6 | 6 | 6 | 6 | 6 | 10 | 10 | 6 | 6 | 10 | 10 | 6 | 6 | inhibition of growth (ETEC): significantly inhibited the growth; zone of inhibition at 100000 µg/disc (ETEC): 10 mm; zone of inhibition at 150000 µg/disc (ETEC): 10 mm; inhibition of growth (Pleisiomonas sp.): inhibited; zone of inhibition at 150 mg/mL (Candida abicans): 6 mm; zone of inhibition at 150 mg/mL (Aeromonas sp.): 6 mm; inhibition of growth (Vibrio cholera): inhibited the growth; zone of inhibition at 150000 µg/disc (Vibrio cholera): 6 mm; zone of inhibition at 150 mg/mL (S. aureus): 10 mm; zone of inhibition (S. aureus; concentration not given): 10 mm; zone of inhibition at 150000 µg/disc (Pseudomonas sp.): 6 mm; zone of inhibition at 150 mg/mL (Proteus sp.): 11 mm; zone of inhibition (Proteus sp.): 11 mm; zone of inhibition at 150 mg/mL (E. coli ATCC 25922): 6 mm |
| O=C(/C=C/c1ccc(O)cc1)CC(=O)/C=C/c1ccc(O)cc1 [compound 3, Bis- demethoxycurcumin] | 6 | 6 | 6 | 6 | 6 | 6 | 6 | 6 | 6 | 6 | 6 | 6 | 9 | 9 | 6 | 6 | 6 | 6 | 6 | 6 | inhibition of growth (ETEC): significantly inhibited the growth; zone of inhibition at 100000 µg/disc (ETEC): 9 mm; zone of inhibition at 150000 µg/disc (ETEC): 9 mm; inhibition of growth (Pleisiomonas sp.): inhibited; zone of inhibition at 150 mg/mL (Candida abicans): 6 mm; zone of inhibition at 150 mg/mL (Aeromonas sp.): 6 mm; zone of inhibition at 150000 µg/disc (Vibrio cholera): 6 mm; zone of inhibition at 150 mg/mL (S. aureus): 6 mm; zone of inhibition at 150000 µg/disc (Pseudomonas sp.): 6 mm; zone of inhibition at 150 mg/mL (Proteus sp.): 7 mm; zone of inhibition (Proteus sp.): 7 mm; zone of inhibition at 150 mg/mL (E. coli ATCC 25922): 6 mm |
| COc1cc(/C=C/C(=O)CC(=O)/C=C/c2ccc(OC(C)=O)c(OC)c2)ccc1OC(C)=O [compound 4, O,O′- Diacetylcurcumin] | 6 | 6 | 6 | 6 | 6 | 6 | 6 | 6 | 6 | 6 | 6 | 6 | 6 | 6 | 6 | 6 | 6 | 6 | 6 | 6 | inhibition of growth (ETEC): significantly inhibited the growth; zone of inhibition at 100000 µg/disc (ETEC): 9 mm; zone of inhibition at 150000 µg/disc (ETEC): 9 mm; zone of inhibition at 150 mg/mL (Candida abicans): 6 mm; zone of inhibition at 150 mg/mL (Aeromonas sp.): 6 mm; zone of inhibition at 150000 µg/disc (Vibrio cholera): 6 mm; zone of inhibition at 150 mg/mL (S. aureus): 6 mm; zone of inhibition at 150000 µg/disc (Pseudomonas sp.): 6 mm; zone of inhibition at 150 mg/mL (Proteus sp.): 6 mm; zone of inhibition at 150 mg/mL (E. coli ATCC 25922): 6 mm |
| COc1cc(CCc2cc(CCc3ccc(O)c(OC)c3)on2)ccc1O [compound 8, Tetrahydrocurcumin Isoxazole] | 8 | 8 | 6 | 6 | 6 | 6 | 6 | 6 | 6 | 6 | 6 | 6 | 6 | 6 | 6 | 6 | 6 | 6 | 6 | 6 | zone of inhibition at 150 mg/mL (Candida abicans): 6 mm; zone of inhibition at 150 mg/mL (Aeromonas sp.): 6 mm; zone of inhibition at 150000 µg/disc (Vibrio cholera): 6 mm; zone of inhibition at 150 mg/mL (S. aureus): 6 mm; zone of inhibition at 150000 µg/disc (Pseudomonas sp.): 6 mm; zone of inhibition at 150 mg/mL (Proteus sp.): 6 mm; zone of inhibition at 150 mg/mL (E. coli ATCC 25922): 6 mm |
| COc1cc(/C=C/C(=O)COC(=O)/C=C/c2ccc(O)cc2)ccc1O [compound 11, Demethoxycalebin- A1] | 6 |  | 6 |  | 6 |  | 6 |  | 6 |  | 6 |  | 6 |  | 6 | 6 | 6 | 6 | 6 | 6 |  |
| COc1cc(/C=C/C(=O)OCC(=O)/C=C/c2ccc(O)cc2)ccc1O [compound 12, Demethoxycalebin- A2] | 6 |  | 6 |  | 6 |  | 6 |  | 6 |  | 6 |  | 10 |  | 6 | 6 | 6 | 6 | 6 | 6 |  |
| O=C(/C=C/c1ccc(O)cc1)COC(=O)/C=C/c1ccc(O)cc1 [compound 13, Bisdemethoxycalebin- A] | 6 |  | 6 |  | 6 |  | 6 |  | 6 |  | 6 |  | 9 |  | 6 | 6 | 6 | 6 | 6 | 6 | inhibition of growth (Pleisiomonas sp.): inhibited |
| Demethoxycalebin-A |  |  |  |  |  |  |  |  |  |  |  |  |  |  |  |  |  |  |  |  | inhibition of growth (Pleisiomonas sp.): inhibited |
